US5128347A, “Glycosidase inhibiting 1,4-dideoxy-4-fluoronojirimycin” (Monsanto Company, priority 1990, dated 1992)

How the values were obtained:
Assay type in all cases: biochemical
[1] = target: T1, yeast α-glucosidase (Saccharomyces cerevisiae, UniProt P53341); assay: α-Glucosidase inhibition assay, pH 7.4; settings: 5 mM test compound, read-out: ALPHA GLUCOSIDASE pH 7.4 (enzyme inhibition)
T1 construct: purchased Sigma
Procedure: (§1) The glycosidase inhibition activity is determined by modifying an assay procedure described in Evans et al, Phytochemistry, 22, pp. 768-770 (1983). More particularly, yeast α-glucosidase and almond β-glucosidase activities were measured by the Evans et al method which was modified by assaying activities at pH 7.4 in N-2-hydroxyethylpiperazine-N-2-ethane sulfonic acid (HEPES) buffer, measuring in 96 well microtiter plates, and including 10% DMSO in control and test samples.
(§2) The release of p-nitrophenol from the substrate p-nitrophenylglycoside was measured spectrophotometrically in the presence and absence of test compound. Each assay included a known inhibitor of the enzyme as a standard. […]
To 100 ul 50 mM HEPES buffer, pH 7.4, in a microtiter plate, 20 ul test compound in DMSO (DMSO alone in control)and 40 ul (0.013 units) yeast α-glucosidase (Sigma) in HEPES buffer were added and pre-incubated at room temperature 15 minutes. 40 ul 1.25 mM p-nitrophenyl-α-D-glucopyranoside (Sigma) in HEPES buffer, as substrate was added and the absorbance change at 405 nm was monitored in a Biotek EIA Autoreader. Absorption change was measured at 15 to 25 minutes (reaction was linear for at least 30 minutes). […] IC50 values were determined from the linear portion of the log concentration vs percent inhibition curve obtained from a minimum of 3 points. […]

[2] = test system: almond β-glucosidase; assay: β-Glucosidase inhibition assay, pH 4.8; settings: 5 mM test compound
Procedure: as §1
(§3) The release of p-nitrophenol from the substrate p-nitrophenylglycoside was measured spectrophotometrically in the presence and absence of test compound. Each assay included a known inhibitor of the enzyme as a standard. IC50 values were determined for compounds which inhibited the enzymes more than 50% at a 1 millimolar concentration.
β-Glucosidase Inhibition Assay
To 100 ul 50 mM sodium citrate buffer, pH 4.8, in a microtiter plate, 20 ul test compound in DMSO (DMSO alone in control) and 20 ul (0.017 units) β-glucosidase (Sigma) in citrate buffer were added and pre-incubated at room temperature 15 minutes. […] 50 ul 0.4 M NaOH was added and the absorption change at 405 nm was determined utilizing a Biotek EIA Autoreader. […] IC50 values were determined from the linear portion of the log concentration vs percent inhibition curve obtained from a minimum of 3 points. […]

[3] = test system: almond β-glucosidase; assay: β-Glucosidase inhibition assay, pH 7.4; settings: 5 mM test compound
Procedure: as §1, §2
To 100 ul 50 mM HEPES buffer, pH 7.4, in a microtiter plate, 20 ul test compound in DMSO (DMSO alone in control) and 40 ul (0.136 units) β-glucosidase (Sigma) in HEPES buffer were added and preincubated at room temperature 15 minutes. 40 ul 1.25 mM p-nitrophenyl-β-D-glucopyranoside in HEPES buffer was added as substrate and the absorbance change at 405 nm was monitored utilizing a Biotek EIA Autoreader. Absorption change was measured at 15 to 25 minutes (reaction is linear for at least 30 minutes). […] IC50 values were determined from the linear portion of the log concentration vs percent inhibition curve obtained from a minimum of 3 points. […]

[4] = target: T2, alpha mannosidase (Canavalia ensiformis, UniProt C0HJB3); assay: α-Mannosidase inhibition, pH 4.5; settings: 5 mM test compound, read-out: ALPHA MANNOSIDASE pH 4.5 (enzyme inhibition)
T2 sequence (C0HJB3 1-981): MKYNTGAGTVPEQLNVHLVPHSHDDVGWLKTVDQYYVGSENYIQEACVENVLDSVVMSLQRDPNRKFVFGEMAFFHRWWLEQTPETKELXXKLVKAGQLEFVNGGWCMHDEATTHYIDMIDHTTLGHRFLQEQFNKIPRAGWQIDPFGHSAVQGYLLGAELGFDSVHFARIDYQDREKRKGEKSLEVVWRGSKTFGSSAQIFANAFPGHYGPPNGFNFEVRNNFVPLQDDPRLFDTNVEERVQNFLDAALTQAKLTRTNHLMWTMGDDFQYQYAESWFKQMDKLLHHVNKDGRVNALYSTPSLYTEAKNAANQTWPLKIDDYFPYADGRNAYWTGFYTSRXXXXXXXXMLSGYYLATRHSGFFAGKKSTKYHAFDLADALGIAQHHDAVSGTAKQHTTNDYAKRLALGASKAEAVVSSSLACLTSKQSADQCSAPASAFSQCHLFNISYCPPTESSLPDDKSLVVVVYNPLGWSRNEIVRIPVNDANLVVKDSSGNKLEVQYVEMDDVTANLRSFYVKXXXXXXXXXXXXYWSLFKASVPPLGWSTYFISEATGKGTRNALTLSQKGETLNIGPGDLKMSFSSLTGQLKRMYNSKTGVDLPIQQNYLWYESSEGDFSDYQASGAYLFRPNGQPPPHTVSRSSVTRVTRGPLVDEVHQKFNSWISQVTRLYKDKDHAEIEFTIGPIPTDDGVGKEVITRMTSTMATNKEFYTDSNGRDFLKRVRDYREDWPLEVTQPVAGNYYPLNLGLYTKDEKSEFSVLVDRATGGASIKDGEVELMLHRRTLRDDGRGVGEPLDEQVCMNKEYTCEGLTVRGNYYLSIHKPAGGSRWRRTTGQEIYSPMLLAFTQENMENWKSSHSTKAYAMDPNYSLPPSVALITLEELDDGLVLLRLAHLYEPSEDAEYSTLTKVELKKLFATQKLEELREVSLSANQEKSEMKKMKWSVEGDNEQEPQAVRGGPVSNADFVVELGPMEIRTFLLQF
Procedure: as §3

[5] = target: T2, alpha mannosidase; assay: α-Mannosidase inhibition, pH 7.4; settings: 5 mM test compound, read-out: ALPHA MANNOSIDASE pH 7.4 (enzyme inhibition)
Procedure: as §3

T1 sequence (P53341 whole entry): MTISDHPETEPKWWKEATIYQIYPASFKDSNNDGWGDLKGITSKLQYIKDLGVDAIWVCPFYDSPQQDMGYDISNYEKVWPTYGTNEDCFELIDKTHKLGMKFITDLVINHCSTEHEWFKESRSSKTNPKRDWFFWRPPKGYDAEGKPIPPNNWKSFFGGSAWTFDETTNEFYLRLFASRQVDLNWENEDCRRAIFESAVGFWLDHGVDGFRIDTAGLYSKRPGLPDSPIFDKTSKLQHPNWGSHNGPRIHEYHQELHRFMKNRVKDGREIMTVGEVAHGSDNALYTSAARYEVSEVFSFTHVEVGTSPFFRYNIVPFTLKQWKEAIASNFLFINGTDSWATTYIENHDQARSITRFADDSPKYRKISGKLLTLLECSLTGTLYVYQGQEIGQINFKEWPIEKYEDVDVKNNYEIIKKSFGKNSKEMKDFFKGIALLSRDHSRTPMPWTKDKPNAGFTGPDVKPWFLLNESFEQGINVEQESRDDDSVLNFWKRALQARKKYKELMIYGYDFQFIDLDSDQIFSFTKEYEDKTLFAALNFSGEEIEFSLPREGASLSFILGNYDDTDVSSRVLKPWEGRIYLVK

| SMILES | inhibition at 5000 µM [1] [%] | BETA GLUCOSIDASE pH 4.8 (enzyme inhibition) [2] [%] | BETA GLUCOSIDASE pH 7.4 (enzyme inhibition) [3] [%] | inhibition at 5000 µM [4] [%] | inhibition at 5000 µM [5] [%] |
| --- | --- | --- | --- | --- | --- |
| OC[C@H]1NC[C@H](O)[C@@H](O)[C@@H]1F [Compound 1, 1,4-dideoxy-4-fluoronojirimycin] | 18 | 17 | 13 | -2 | 12 |
| CCCCN1C[C@H](O)[C@@H](O)[C@H](F)[C@H]1CO [Compound 2, N-butyl-1,4-dideoxy-4-fluoronojirimycin] | 28 | 13 | 14 | -3 | 6 |
